Results as given in article PMC7316994, “In Vitro Pharmacological Profile of a New Small Molecule Bradykinin B2 Receptor Antagonist” (Frontiers in Pharmacology, 2020).

Assays:
Oxytocin = molecular target: T1, Oxytocin (Homo sapiens, UniProt P30559); experiment: radioligand binding (Table S2); conditions: [3H] Oxytocin, Human recombinant Chem-1 cells
T1 construct: host or cells: Chem-1 cells

Serotonin 5-HT1A = molecular target: T2, Serotonin 5-HT1A (Homo sapiens, UniProt P08908); experiment: radioligand binding (Table S2); conditions: [3H] 8-OH-DPAT, Human recombinant HEK-293 cells
T2 construct: host or cells: HEK-293 cells
T2 sequence (P08908 whole entry): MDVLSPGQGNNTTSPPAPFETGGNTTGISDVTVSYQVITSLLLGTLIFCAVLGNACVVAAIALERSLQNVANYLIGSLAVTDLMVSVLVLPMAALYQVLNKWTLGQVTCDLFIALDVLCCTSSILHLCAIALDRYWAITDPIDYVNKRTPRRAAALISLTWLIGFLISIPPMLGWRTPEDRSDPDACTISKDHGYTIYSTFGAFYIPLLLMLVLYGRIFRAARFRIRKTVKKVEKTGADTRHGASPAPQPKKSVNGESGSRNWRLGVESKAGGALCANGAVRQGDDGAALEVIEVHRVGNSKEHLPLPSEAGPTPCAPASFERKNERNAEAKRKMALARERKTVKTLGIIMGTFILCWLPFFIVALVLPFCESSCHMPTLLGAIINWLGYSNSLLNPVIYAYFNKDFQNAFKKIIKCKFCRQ

Cholecystokinin CCK1 = Cholecystokinin CCK1 (Homo sapiens, UniProt P32238); experiment: radioligand binding (Table S2); conditions: [125I] CCK-8s, Human recombinant CHO cells
Chain of Cholecystokinin CCK1 (P32238 whole entry): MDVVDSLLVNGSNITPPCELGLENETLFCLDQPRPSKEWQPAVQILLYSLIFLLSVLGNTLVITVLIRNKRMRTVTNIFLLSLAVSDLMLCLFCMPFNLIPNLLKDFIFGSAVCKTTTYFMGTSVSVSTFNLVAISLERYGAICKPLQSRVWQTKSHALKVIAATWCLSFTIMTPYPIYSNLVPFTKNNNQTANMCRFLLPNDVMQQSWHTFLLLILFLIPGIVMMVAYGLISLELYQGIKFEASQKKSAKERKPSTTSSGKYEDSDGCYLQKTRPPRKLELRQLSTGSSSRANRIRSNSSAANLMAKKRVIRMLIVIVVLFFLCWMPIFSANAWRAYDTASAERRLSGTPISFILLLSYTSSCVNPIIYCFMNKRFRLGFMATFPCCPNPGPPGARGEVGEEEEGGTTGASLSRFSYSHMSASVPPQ

[1] = molecular target: T3, Melanin-concentrating hormone receptor MCH1 (Homo sapiens, UniProt Q99705); experiment: radioligand binding (Table S2); conditions: [125I] [Phe13, Tyr19]-MCH, Human recombinant CHO cells
T3 construct: host or cells: CHO cells

COX1 = molecular target: T4, COX1 (Homo sapiens, UniProt P23219); experiment: enzyme assay (Table S2); format: biochemical; conditions: Arachidonic acid (3 µM) + ADHP, Fluorimetry
T4 construct: Eurofins (assay provider)

Neurokinin NK1 = Neurokinin NK1 (Homo sapiens, UniProt P25103); format: cell-based
Chain of Neurokinin NK1 (P25103 whole entry): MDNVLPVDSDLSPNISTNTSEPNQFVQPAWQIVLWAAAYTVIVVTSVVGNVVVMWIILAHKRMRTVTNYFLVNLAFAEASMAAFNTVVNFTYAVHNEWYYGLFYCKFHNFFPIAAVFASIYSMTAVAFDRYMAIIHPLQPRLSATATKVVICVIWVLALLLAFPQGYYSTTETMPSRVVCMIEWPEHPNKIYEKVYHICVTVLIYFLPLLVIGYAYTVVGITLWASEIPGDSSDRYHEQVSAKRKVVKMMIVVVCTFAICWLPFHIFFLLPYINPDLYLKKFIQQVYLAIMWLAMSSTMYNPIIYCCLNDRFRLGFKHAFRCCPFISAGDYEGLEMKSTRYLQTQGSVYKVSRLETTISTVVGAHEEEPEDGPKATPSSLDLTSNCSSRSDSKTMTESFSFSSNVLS

Serotonin 5-HT2B = molecular target: T5, Serotonin 5-HT2B (Homo sapiens, UniProt P41595); experiment: radioligand binding (Table S2); conditions: [125I] (±)DOI, Human recombinant CHO cells
T5 construct: host or cells: CHO cells
T5 sequence (P41595 whole entry): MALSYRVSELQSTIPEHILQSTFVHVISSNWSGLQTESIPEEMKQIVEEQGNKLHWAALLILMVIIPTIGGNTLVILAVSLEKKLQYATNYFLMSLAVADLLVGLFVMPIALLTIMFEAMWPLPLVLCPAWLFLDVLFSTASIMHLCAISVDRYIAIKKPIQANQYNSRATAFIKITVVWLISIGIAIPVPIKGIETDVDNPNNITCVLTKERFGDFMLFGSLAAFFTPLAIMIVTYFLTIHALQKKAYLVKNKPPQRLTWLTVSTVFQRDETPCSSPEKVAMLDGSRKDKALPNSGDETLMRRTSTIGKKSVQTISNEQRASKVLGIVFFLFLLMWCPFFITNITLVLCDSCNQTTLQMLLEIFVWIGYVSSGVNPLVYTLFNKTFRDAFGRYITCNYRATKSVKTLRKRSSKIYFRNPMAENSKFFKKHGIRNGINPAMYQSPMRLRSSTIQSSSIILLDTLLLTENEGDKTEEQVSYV

Prostanoid EP2 = molecular target: T6, Prostanoid EP2 (Homo sapiens, UniProt P43116); experiment: radioligand binding (Table S2); conditions: [3H] Prostaglandin E2, Human recombinant HEK-293 cells
T6 construct: host or cells: HEK-293 cells
T6 sequence (P43116 whole entry): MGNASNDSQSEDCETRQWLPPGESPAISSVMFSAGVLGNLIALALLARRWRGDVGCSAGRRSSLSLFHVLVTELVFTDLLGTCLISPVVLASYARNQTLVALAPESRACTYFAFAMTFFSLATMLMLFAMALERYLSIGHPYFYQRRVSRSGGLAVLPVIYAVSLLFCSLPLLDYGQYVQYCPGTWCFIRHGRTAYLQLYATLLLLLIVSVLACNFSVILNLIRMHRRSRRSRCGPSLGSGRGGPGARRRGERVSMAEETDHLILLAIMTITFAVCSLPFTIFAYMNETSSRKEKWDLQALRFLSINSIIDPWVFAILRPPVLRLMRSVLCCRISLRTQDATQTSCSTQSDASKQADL

Histamine H3 = molecular target: T7, Histamine H3 (Homo sapiens, UniProt Q9Y5N1); experiment: radioligand binding (Table S2); conditions: [3H] Nα-Me-histamine, Human recombinant CHO cells
T7 construct: host or cells: CHO cells

[2] = molecular target: T8, Corticotropin-releasing factor CRF1 (Homo sapiens, UniProt P34998); experiment: functional assay, cAMP HTRF, CHO cells (Table S2); format: cell-based
T8 construct: expressed in transfected cells; host or cells: CHO cells
T8 sequence (P34998 24-415): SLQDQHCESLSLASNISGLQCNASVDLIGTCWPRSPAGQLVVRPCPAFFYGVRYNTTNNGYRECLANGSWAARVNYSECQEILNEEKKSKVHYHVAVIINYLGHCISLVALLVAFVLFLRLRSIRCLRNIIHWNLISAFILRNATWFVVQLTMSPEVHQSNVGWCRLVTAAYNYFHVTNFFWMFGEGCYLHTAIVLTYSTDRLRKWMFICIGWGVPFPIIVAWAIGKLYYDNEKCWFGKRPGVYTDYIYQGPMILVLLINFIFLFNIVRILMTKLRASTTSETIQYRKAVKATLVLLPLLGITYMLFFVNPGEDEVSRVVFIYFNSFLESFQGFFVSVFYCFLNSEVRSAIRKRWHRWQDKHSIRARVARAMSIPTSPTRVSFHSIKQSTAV

Urotensin UT = molecular target: T9, Urotensin UT (Homo sapiens, UniProt Q9UKP6); experiment: radioligand binding (Table S2); conditions: [125I] Urotensin-II, Human recombinant CHO cells
T9 construct: host or cells: CHO cells

kinin B1 receptor = molecular target: T10, kinin B1 receptor (Homo sapiens, UniProt P46663); experiment: umbilical vein, Sar-[D-Phe^8]des-Arg^9-BK-induced contraction; conditions: 1 μM
T10 construct: during the 3-hour incubation period to upregulate the expression of B1; from tissue; host or cells: human umbilical vein rings pre-incubated with interleukin-1β and tumor necrosis factor-α

[3] = molecular target: T11, Thyrotropin-releasing hormone TRH1 (Homo sapiens, UniProt P34981); experiment: radioligand binding (Table S2); conditions: [3H] Me-TRH, Human recombinant CHO cells
T11 construct: host or cells: CHO cells
T11 sequence (P34981 whole entry): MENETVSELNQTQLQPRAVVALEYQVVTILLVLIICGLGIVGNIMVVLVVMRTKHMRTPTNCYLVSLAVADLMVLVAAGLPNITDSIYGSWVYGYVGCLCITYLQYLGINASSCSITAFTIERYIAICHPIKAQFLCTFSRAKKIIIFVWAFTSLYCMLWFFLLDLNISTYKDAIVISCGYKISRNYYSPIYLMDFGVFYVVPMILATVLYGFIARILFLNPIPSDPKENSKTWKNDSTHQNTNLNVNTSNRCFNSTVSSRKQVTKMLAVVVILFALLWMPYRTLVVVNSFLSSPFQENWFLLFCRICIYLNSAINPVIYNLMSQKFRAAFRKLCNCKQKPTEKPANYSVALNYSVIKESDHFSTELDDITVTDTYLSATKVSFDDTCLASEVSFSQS

Chemokine CXCR2 (IL-8RB) = Chemokine CXCR2 (IL-8RB) (Homo sapiens, UniProt P25025); experiment: radioligand binding (Table S2); conditions: [125I] IL-8, Human recombinant CHO-K1 cells
Chain of Chemokine CXCR2 (IL-8RB) (P25025 whole entry): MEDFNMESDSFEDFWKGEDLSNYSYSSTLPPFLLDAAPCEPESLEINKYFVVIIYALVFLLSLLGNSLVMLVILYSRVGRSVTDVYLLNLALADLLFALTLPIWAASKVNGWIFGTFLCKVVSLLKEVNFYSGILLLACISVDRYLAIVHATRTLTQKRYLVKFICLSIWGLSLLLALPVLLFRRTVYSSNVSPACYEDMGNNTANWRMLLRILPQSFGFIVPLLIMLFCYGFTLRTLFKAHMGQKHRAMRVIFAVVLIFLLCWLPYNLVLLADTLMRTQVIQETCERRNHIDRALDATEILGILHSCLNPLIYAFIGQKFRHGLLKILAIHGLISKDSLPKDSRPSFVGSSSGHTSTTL

[4] = molecular target: T12, Leukotriene B4 receptor BLT1 (Homo sapiens, UniProt Q15722); experiment: radioligand binding (Table S2); conditions: [3H] LTB4, Human recombinant CHO cells
T12 construct: host or cells: CHO cells

Prostanoid CRTH2 = molecular target: T13, Prostanoid CRTH2 (Homo sapiens, UniProt Q9Y5Y4); experiment: radioligand binding (Table S2); conditions: [3H] Prostaglandin D2, Human recombinant CHO-K1 cells
T13 construct: host or cells: CHO-K1 cells
T13 sequence (Q9Y5Y4 whole entry): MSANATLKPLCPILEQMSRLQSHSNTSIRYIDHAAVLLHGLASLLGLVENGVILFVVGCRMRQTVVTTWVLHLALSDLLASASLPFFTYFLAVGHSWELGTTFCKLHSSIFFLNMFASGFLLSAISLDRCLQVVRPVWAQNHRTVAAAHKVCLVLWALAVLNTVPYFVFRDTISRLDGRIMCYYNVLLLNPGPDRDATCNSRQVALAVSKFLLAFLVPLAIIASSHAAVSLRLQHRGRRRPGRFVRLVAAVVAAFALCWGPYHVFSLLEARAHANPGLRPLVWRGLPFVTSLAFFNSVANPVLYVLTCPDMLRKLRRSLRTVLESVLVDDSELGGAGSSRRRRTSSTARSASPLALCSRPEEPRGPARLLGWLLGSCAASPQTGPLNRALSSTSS

[5] = test system: Muscarinic, oxotremorine M; experiment: radioligand binding (Table S2); conditions: [3H] Oxotremorine M, Wistar rat cerebral cortex
Dopamine D1 = molecular target: T14, Dopamine D1 (Homo sapiens, UniProt P21728); experiment: radioligand binding (Table S2); conditions: [3H] SCH 23390, Human recombinant CHO cells
T14 construct: host or cells: CHO cells
T14 sequence (P21728 whole entry): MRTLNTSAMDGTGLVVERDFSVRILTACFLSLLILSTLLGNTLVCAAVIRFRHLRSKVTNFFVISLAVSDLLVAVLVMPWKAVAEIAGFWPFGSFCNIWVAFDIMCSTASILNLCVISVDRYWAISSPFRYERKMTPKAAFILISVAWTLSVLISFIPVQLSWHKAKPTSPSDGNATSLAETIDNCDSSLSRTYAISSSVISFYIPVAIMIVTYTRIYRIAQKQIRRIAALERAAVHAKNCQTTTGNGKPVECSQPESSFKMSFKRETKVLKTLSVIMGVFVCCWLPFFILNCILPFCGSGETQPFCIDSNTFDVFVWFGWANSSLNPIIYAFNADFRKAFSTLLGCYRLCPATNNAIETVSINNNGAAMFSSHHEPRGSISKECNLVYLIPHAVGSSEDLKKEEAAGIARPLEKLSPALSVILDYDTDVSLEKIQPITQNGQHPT

Orexin OX1 = molecular target: T15, Orexin OX1 (Homo sapiens, UniProt O43613); experiment: radioligand binding (Table S2); conditions: [125I] Orexin A, Human recombinant CHO cells
T15 construct: host or cells: CHO cells
T15 sequence (O43613 whole entry): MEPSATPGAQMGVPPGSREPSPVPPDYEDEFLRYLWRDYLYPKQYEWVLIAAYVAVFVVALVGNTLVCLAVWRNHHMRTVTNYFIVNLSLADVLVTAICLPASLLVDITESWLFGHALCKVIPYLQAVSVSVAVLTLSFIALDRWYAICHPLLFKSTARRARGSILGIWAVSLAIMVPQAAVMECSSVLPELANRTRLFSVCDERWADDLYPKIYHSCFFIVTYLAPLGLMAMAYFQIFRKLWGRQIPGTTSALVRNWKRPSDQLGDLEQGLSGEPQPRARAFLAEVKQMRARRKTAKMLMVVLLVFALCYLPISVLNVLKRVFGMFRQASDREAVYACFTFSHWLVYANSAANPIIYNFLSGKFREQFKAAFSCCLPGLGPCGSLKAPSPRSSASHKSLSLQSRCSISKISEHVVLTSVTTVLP

in vitro = conditions: human, Caco-2
Chemokine CXCR4 = Chemokine CXCR4 (Homo sapiens, UniProt P61073); experiment: radioligand binding (Table S2); conditions: [125I] SDF-1α, Human recombinant Chem-1 cells
Chain of Chemokine CXCR4 (P61073 whole entry): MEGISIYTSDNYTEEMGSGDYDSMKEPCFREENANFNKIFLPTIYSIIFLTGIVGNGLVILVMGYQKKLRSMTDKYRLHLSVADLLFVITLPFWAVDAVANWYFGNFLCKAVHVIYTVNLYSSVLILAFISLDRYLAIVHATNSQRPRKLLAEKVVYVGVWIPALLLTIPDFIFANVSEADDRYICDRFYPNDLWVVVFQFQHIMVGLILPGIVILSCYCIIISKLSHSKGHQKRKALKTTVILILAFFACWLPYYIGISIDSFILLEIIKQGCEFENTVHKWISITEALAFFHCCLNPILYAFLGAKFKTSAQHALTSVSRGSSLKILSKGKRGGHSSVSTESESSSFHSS

Adenosine A3 = molecular target: T16, Adenosine A3 (Homo sapiens, UniProt P0DMS8); experiment: radioligand binding (Table S2); conditions: [125I] AB-MECA, Human recombinant HEK-293 cells
T16 sequence (P0DMS8 1-318): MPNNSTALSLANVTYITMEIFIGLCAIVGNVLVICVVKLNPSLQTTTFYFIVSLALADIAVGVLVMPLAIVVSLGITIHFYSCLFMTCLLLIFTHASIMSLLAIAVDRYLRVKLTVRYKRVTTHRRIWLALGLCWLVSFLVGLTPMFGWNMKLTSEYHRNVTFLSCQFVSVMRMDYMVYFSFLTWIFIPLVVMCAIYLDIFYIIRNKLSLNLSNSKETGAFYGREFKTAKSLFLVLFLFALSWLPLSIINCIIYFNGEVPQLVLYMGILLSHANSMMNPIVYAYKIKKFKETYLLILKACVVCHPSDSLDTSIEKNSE

T1 sequence (P30559 whole entry): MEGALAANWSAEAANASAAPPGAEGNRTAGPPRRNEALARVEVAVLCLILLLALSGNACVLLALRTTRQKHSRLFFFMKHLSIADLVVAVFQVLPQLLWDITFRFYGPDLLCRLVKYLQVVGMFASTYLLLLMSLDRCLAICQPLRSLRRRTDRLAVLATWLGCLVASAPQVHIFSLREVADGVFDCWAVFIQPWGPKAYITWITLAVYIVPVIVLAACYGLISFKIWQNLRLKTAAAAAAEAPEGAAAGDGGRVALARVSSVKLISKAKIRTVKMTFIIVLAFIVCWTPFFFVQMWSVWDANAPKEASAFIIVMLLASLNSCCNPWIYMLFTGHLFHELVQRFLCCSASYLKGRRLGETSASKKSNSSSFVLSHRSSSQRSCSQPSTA

Cc1cc(-c2ncnn2C)c2cccc(OCc3c(Cl)cc(F)cc3[C@H](C)NC(=O)COC(F)F)c2n1 [Compound 3, (S)-N-(1-(3-chloro-5-fluoro-2-((2-methyl-4-(1-methyl-1H-1,2,4-triazol-5-yl)quinolin-8-yloxy)methyl)phenyl)ethyl)-2-(difluoromethoxy)acetamide]
inhibition at 10 µM (Oxytocin): 5%
inhibition at 10 µM (Serotonin 5-HT1A): -4%
inhibition at 10 µM (Cholecystokinin CCK1): 2.7%
inhibition at 10 µM [1]: 13.4%
inhibition at 10 µM (COX1): -9.3%
% of reference agonist response @ 10 µM (agonist effect) (Neurokinin NK1; 10 µM, reference [Sar9,Met(O2)11]-SP (30 nM)): -5.2%
IC50 (Neurokinin NK1; [Sar9,Met(O2)11]-SP (1 nM), read-out: IC50 (µM), functional antagonism): 17 µM
Kb (Neurokinin NK1; [Sar9,Met(O2)11]-SP (1 nM), read-out: Kb (µM), functional antagonism): 2.4 µM
inhibition at 10 µM (Serotonin 5-HT2B): -8.9%
inhibition at 10 µM (Prostanoid EP2): 12%
inhibition at 10 µM (Histamine H3): 6.2%
% of reference agonist response @ 10 µM (agonist effect) ([2]; 10 µM, reference ovine CRF (1 µM)): -2.7%
inhibition at 10 µM ([2]; CHO, read-out: % inhibition of reference agonist response @ 10 µM (antagonist effect), 10 µM, Ovine CRF (10 nM)): 55.7%
IC50 ([2]; Ovine CRF (10 nM), read-out: IC50 (µM), functional antagonism): 10 µM
Kb ([2]; Ovine CRF (10 nM), read-out: Kb (µM), functional antagonism): 3.6 µM
inhibition at 10 µM (Urotensin UT): 13.5%
effect on contraction by B1 receptor agonist Sar-[D-Phe^8]des-Arg^9-BK (kinin B1 receptor): failed to antagonize
inhibition at 10 µM [3]: 21.7%
inhibition at 10 µM (Chemokine CXCR2 (IL-8RB)): 17%
inhibition at 10 µM [4]: 16.7%
inhibition at 10 µM (Prostanoid CRTH2): 3%
% Inhibition @ 10 µM [5]: 18%
inhibition at 10 µM (Dopamine D1): 6.9%
inhibition at 10 µM (Orexin OX1): 7.1%
Papp A→B at 60 min, 10 µM (in vitro): 17.3 ×10⁻⁶ cm/s
Papp B→A at 60 min, 10 µM (in vitro): 17.6 ×10⁻⁶ cm/s
inhibition at 10 µM (Chemokine CXCR4): 10%
inhibition at 10 µM (Adenosine A3): 39.8%
